From publication PMC7893792 (ACS Omega, 2021)

B1: rOat3 (Rattus norvegicus) (protein)
chain: MTFSEILDRVGSMGPFQYLHVTLLALPVLGIANHNLLQIFTATTPVHHCRPPPNASIGPWVLPLDPNGKPEKCLRFVHLPNASLPNDTQRATEPCLDGWIYNSTRDTIVIEWDLVCSSNKLKEMAQSIFMAGILVGGPVIGELSDRFGRKPILTWSYLMLAASGSGAAFSPSLPVYMIFRFLCGCSISGISLSTVILNVEWVPTSMRAISSTSIGYCYTIGQFILSGLAYAIPQWRWLQLTSSAPFFIFSLLSWWVPESIRWLVLSGKYSKALKTLQRVATFNGKKEEGKKLTIEELKFNLQKDITSAKVKYGLSDLFRVSILRRVTFCLSLAWFSTGFAYYSLAMGVEEFGVNIYILQIIFGGVDIPAKFITILSLSYLGRRITQSFLLLLAGGAILALIFVPSEMQLLRTALAVFGKGCLSGSFSCLFLYTSELYPTVLRQTGMGISNVWARVGSMIAPLVKITGELQPFIPNVIFGTTALLGGSAAFFLLETLNRPLPETIEDIQNWHKQVQKTKQESEAEKASQIIPLKTGG

What was measured:
[1] = cited from earlier work
[2] = substrate: O=C(O)c1ccc(C(=O)O)c(-c2c3ccc(=O)cc-3oc3cc(O)ccc23)c1; assay: 6-CF uptake by rOat3-expressing HEK293 cells; assay type: cell-based, rat; conditions: other: HEK293-rOat3, 2 min, 37 °C, pH 7.4, 1-100 μM 6-CF

Molecule | Binding to serum protein [1] | Km [2]
carboxyfluorescein | ~90% | 
B1 |  | 2.52 ± 0.48 µM
